Test results as given in PubChem BioAssay AID256 (DTP/NCI, 2004).
Several values for one entry are separate records, joined by “and”; a condition that tells them apart may be missing. Identical values can stand only once. Inconclusive results and toxic doses are left out.

Test system: CD2F1 mice, L1210 leukemia ip, survival T/C
Assay: NCI In Vivo Anticancer Drug Screen. Data for tumor model L1210 Leukemia (intraperitoneal) in CD2F1 (CDF1) mice
Details: higher = longer survival
Summary of the method: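 Mice carrying a transplanted tumor received test compound or vehicle alone. The value is the measurement in the treated group divided by that in the vehicle-treated control group.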

[1] = endpoint: mean survival time, dose: 100.0 mg/kg/injection, schedule: Q04DX003 (ip), vehicle: saline
[2] = endpoint: mean survival time, dose: 200.0 mg/kg/injection, schedule: Q04DX003 (ip), vehicle: saline
[3] = endpoint: mean survival time, dose: 400.0 mg/kg/injection, schedule: Q04DX003 (ip), vehicle: saline
[4] = endpoint: mean survival time, dose: 25.0 mg/kg/injection, schedule: Q01DX009 (ip), vehicle: saline
[5] = endpoint: mean survival time, dose: 50.0 mg/kg/injection, schedule: Q01DX009 (ip), vehicle: saline
[6] = endpoint: mean survival time, dose: 100.0 mg/kg/injection, schedule: Q04DX002 (ip), vehicle: saline with Tween-80
[7] = endpoint: mean survival time, dose: 200.0 mg/kg/injection, schedule: Q04DX002 (ip), vehicle: saline with Tween-80
[8] = endpoint: mean survival time, dose: 400.0 mg/kg/injection, schedule: Q04DX002 (ip), vehicle: saline with Tween-80
[9] = endpoint: mean survival time, dose: 200.0 mg/kg/injection, schedule: Q01DX009 (ip), vehicle: saline with Tween-80
[10] = endpoint: mean survival time, dose: 100.0 mg/kg/injection, schedule: Q01DX009 (ip), vehicle: saline with Tween-80

For `OC(CBr)C(O)C(O)C(O)CBr` (stereo not given), the T/C (endpoint: mean survival time, dose: 25.0 mg/kg/injection, schedule: Q01DX009 (oral), vehicle: other) was 109 % of control, the T/C (endpoint: mean survival time, dose: 50.0 mg/kg/injection, schedule: Q01DX009 (oral), vehicle: other) was 112 % of control and the T/C (endpoint: mean survival time, dose: 100.0 mg/kg/injection, schedule: Q01DX001 (ip), vehicle: saline) was 103 % of control. The T/C (endpoint: mean survival time, dose: 100.0 mg/kg/injection, schedule: Q01DX009 (oral), vehicle: other) was 121 % of control, the T/C [1] was 101 % of control and 103 % of control and the T/C (endpoint: mean survival time, dose: 200.0 mg/kg/injection, schedule: Q01DX001 (ip), vehicle: saline) was 101 % of control. For the same molecule, the T/C (endpoint: mean survival time, dose: 200.0 mg/kg/injection, schedule: Q04DX003 (ip), vehicle: Klucel (hydroxypropylcellulose) (HPC)) was 120 % of control, the T/C [2] was 108 % of control and the T/C (endpoint: mean survival time, dose: 237.0 mg/kg/injection, schedule: Q04DX003 (ip), vehicle: saline with Tween-80) was 94 % of control. For the same molecule, the T/C (endpoint: mean survival time, dose: 355.55 mg/kg/injection, schedule: Q04DX003 (ip), vehicle: saline with Tween-80) was 89 % of control, the T/C (endpoint: mean survival time, dose: 400.0 mg/kg/injection, schedule: Q01DX001 (ip), vehicle: saline) was 106 % of control and the T/C (endpoint: mean survival time, dose: 400.0 mg/kg/injection, schedule: Q01DX009 (oral), vehicle: other) was 113 % of control. The T/C [3] was 101 % of control and 108 % of control, the T/C (endpoint: mean survival time, dose: 533.33 mg/kg/injection, schedule: Q04DX003 (ip), vehicle: saline with Tween-80) was 99 % of control and the T/C (endpoint: mean survival time, dose: 800.0 mg/kg/injection, schedule: Q04DX003 (ip), vehicle: saline with Tween-80) was 94 % of control. The T/C (endpoint: mean survival time, dose: 800.0 mg/kg/injection, schedule: Q04DX003 (ip), vehicle: saline) was 116 % of control, the T/C (endpoint: mean survival time, dose: 1200.0 mg/kg/injection, schedule: Q04DX003 (ip), vehicle: saline with Tween-80) was 98 % of control and the T/C (endpoint: mean survival time, dose: 1200.0 mg/kg/injection, schedule: Q04DX003 (ip), vehicle: saline) was 114 % of control. For the same molecule, the T/C (endpoint: median survival time, dose: 8.0 mg/kg/injection, schedule: Q03HX024 (ip), vehicle: Klucel (hydroxypropylcellulose) (HPC)) was 103 % of control, the T/C (endpoint: median survival time, dose: 16.0 mg/kg/injection, schedule: Q03HX008 (ip), vehicle: Klucel (hydroxypropylcellulose) (HPC)) was 108 % of control and the T/C (endpoint: median survival time, dose: 16.0 mg/kg/injection, schedule: Q03HX016 (ip), vehicle: Klucel (hydroxypropylcellulose) (HPC)) was 105 % of control. For the same molecule, the T/C (endpoint: median survival time, dose: 16.0 mg/kg/injection, schedule: Q03HX024 (ip), vehicle: Klucel (hydroxypropylcellulose) (HPC)) was 106 % of control, the T/C (endpoint: median survival time, dose: 32.0 mg/kg/injection, schedule: Q01DX009 (ip), vehicle: Klucel (hydroxypropylcellulose) (HPC)) was 104 % of control and the T/C (endpoint: median survival time, dose: 32.0 mg/kg/injection, schedule: Q03HX008 (ip), vehicle: Klucel (hydroxypropylcellulose) (HPC)) was 115 % of control. The T/C (endpoint: median survival time, dose: 32.0 mg/kg/injection, schedule: Q03HX016 (ip), vehicle: Klucel (hydroxypropylcellulose) (HPC)) was 103 % of control, the T/C (endpoint: median survival time, dose: 32.0 mg/kg/injection, schedule: Q03HX024 (ip), vehicle: Klucel (hydroxypropylcellulose) (HPC)) was 109 % of control and the T/C (endpoint: median survival time, dose: 64.0 mg/kg/injection, schedule: Q01DX009 (ip), vehicle: Klucel (hydroxypropylcellulose) (HPC)) was 105 % of control. For the same molecule, the T/C (endpoint: median survival time, dose: 64.0 mg/kg/injection, schedule: Q04DX003 (ip), vehicle: Klucel (hydroxypropylcellulose) (HPC)) was 109 % of control, the T/C (endpoint: median survival time, dose: 120.0 mg/kg/injection, schedule: Q01DX005 (ip), vehicle: Klucel (hydroxypropylcellulose) (HPC)) was 151 % of control and 159 % of control and 163 % of control and the T/C (endpoint: median survival time, dose: 128.0 mg/kg/injection, schedule: Q01DX001 (ip), vehicle: Klucel (hydroxypropylcellulose) (HPC)) was 108 % of control. For the same molecule, the T/C (endpoint: median survival time, dose: 128.0 mg/kg/injection, schedule: Q01DX009 (ip), vehicle: Klucel (hydroxypropylcellulose) (HPC)) was 86 % of control, the T/C (endpoint: median survival time, dose: 128.0 mg/kg/injection, schedule: Q04DX003 (ip), vehicle: Klucel (hydroxypropylcellulose) (HPC)) was 122 % of control and the T/C (endpoint: median survival time, dose: 128.0 mg/kg/injection, schedule: Q08DX002 (ip), vehicle: Klucel (hydroxypropylcellulose) (HPC)) was 109 % of control. The T/C (endpoint: median survival time, dose: 180.0 mg/kg/injection, schedule: Q01DX005 (ip), vehicle: Klucel (hydroxypropylcellulose) (HPC)) was 155 % of control and 162 % of control and 164 % of control, the T/C (endpoint: median survival time, dose: 200.0 mg/kg/injection, schedule: Q04DX003 (ip), vehicle: Klucel (hydroxypropylcellulose) (HPC)) was 151 % of control and the T/C (endpoint: median survival time, dose: 256.0 mg/kg/injection, schedule: Q01DX001 (ip), vehicle: Klucel (hydroxypropylcellulose) (HPC)) was 112 % of control. The T/C (endpoint: median survival time, dose: 256.0 mg/kg/injection, schedule: Q04DX003 (ip), vehicle: Klucel (hydroxypropylcellulose) (HPC)) was 109 % of control, the T/C (endpoint: median survival time, dose: 256.0 mg/kg/injection, schedule: Q08DX002 (ip), vehicle: Klucel (hydroxypropylcellulose) (HPC)) was 114 % of control and the T/C (endpoint: median survival time, dose: 270.0 mg/kg/injection, schedule: Q01DX005 (ip), vehicle: Klucel (hydroxypropylcellulose) (HPC)) was 100 % of control. For the same molecule, the T/C (endpoint: median survival time, dose: 300.0 mg/kg/injection, schedule: Q04DX003 (ip), vehicle: Klucel (hydroxypropylcellulose) (HPC)) was 155 % of control and 184 % of control and 197 % of control, the T/C (endpoint: median survival time, dose: 400.0 mg/kg/injection, schedule: Q04DX003 (ip), vehicle: Klucel (hydroxypropylcellulose) (HPC)) was 195 % of control and the T/C (endpoint: median survival time, dose: 512.0 mg/kg/injection, schedule: Q01DX001 (ip), vehicle: Klucel (hydroxypropylcellulose) (HPC)) was 95 % of control. For the same molecule, the T/C (endpoint: median survival time, dose: 512.0 mg/kg/injection, schedule: Q04DX003 (ip), vehicle: Klucel (hydroxypropylcellulose) (HPC)) was 112 % of control and the T/C (endpoint: median survival time, dose: 512.0 mg/kg/injection, schedule: Q08DX002 (ip), vehicle: Klucel (hydroxypropylcellulose) (HPC)) was 122 % of control.

`CCOC(=O)CN1CC(=O)Nc2ccccc21` was tested, and the T/C (endpoint: mean survival time, dose: 100.0 mg/kg/injection, schedule: Q04DX003 (ip), vehicle: saline with Tween-80) was 95 % of control, the T/C (endpoint: mean survival time, dose: 200.0 mg/kg/injection, schedule: Q04DX003 (ip), vehicle: saline with Tween-80) was 98 % of control and the T/C (endpoint: mean survival time, dose: 400.0 mg/kg/injection, schedule: Q04DX003 (ip), vehicle: saline with Tween-80) was 111 % of control.

In the case of `N[C@@H](Cc1ccc(O)c(O)c1)C(=O)O`, the T/C [4] is reported as 98 % of control, the T/C [5] is reported as 97 % of control and the T/C (endpoint: mean survival time, dose: 100.0 mg/kg/injection, schedule: Q01DX009 (ip), vehicle: saline) is reported as 96 % of control. The T/C [6] was 103 % of control, the T/C (endpoint: mean survival time, dose: 200.0 mg/kg/injection, schedule: Q01DX009 (ip), vehicle: saline) was 103 % of control and the T/C [7] was 95 % of control. For the same molecule, the T/C (endpoint: mean survival time, dose: 400.0 mg/kg/injection, schedule: Q01DX009 (ip), vehicle: saline) was 108 % of control, the T/C [8] was 98 % of control and the T/C (endpoint: mean survival time, dose: 800.0 mg/kg/injection, schedule: Q01DX009 (ip), vehicle: saline) was 119 % of control.

`CCOc1ccc(Nc2c3ccccc3nc3ccccc23)cc1` was tested, and the T/C [9] was 88 % of control.

`O=C1NC(=O)C(=Cc2cc3c(cc2Br)OCO3)C(=O)N1` was tested, and the T/C (endpoint: mean survival time, dose: 25.0 mg/kg/injection, schedule: Q01DX009 (ip), vehicle: Klucel (hydroxypropylcellulose) (HPC)) was 91 % of control, the T/C (endpoint: mean survival time, dose: 50.0 mg/kg/injection, schedule: Q01DX009 (ip), vehicle: Klucel (hydroxypropylcellulose) (HPC)) was 93 % of control and the T/C (endpoint: mean survival time, dose: 100.0 mg/kg/injection, schedule: Q01DX009 (ip), vehicle: Klucel (hydroxypropylcellulose) (HPC)) was 89 % of control. The T/C [6] was 104 % of control, the T/C (endpoint: mean survival time, dose: 200.0 mg/kg/injection, schedule: Q01DX009 (ip), vehicle: Klucel (hydroxypropylcellulose) (HPC)) was 100 % of control and the T/C [7] was 112 % of control. For the same molecule, the T/C [8] was 108 % of control.

In the case of `CC(=O)Nc1ccc(C)cc1Cl`, the T/C (endpoint: mean survival time, dose: 100.0 mg/kg/injection, schedule: Q01DX001 (ip), vehicle: saline with Tween-80) is reported as 96 % of control, the T/C (endpoint: mean survival time, dose: 200.0 mg/kg/injection, schedule: Q01DX001 (ip), vehicle: saline with Tween-80) is reported as 100 % of control and the T/C (endpoint: mean survival time, dose: 400.0 mg/kg/injection, schedule: Q01DX001 (ip), vehicle: saline with Tween-80) is reported as 93 % of control.

With `CCOC(=O)C1=C(C)NC(=O)NN1C(=O)OCC` the T/C (endpoint: mean survival time, dose: 12.5 mg/kg/injection, schedule: Q01DX009 (ip), vehicle: saline) was 94 % of control, the T/C [4] was 87 % of control and the T/C [5] was 94 % of control.

With `CCCCCCCCCCCCCC(CCCC)CCCCCCCC` (stereo not given) the T/C (endpoint: mean survival time, dose: 100.0 mg/kg/injection, schedule: Q01DX001 (ip), vehicle: saline sonified) was 107 % of control, the T/C (endpoint: mean survival time, dose: 200.0 mg/kg/injection, schedule: Q01DX001 (ip), vehicle: saline sonified) was 95 % of control and the T/C (endpoint: mean survival time, dose: 400.0 mg/kg/injection, schedule: Q01DX001 (ip), vehicle: saline sonified) was 102 % of control.

In the case of `CC1CCC2N(C1)CC1C(C(O)C(O)C3(O)C1CC14OC5(O)C(O)CCC1(C)C5CC(O)C34)C2(C)O` (stereo not given), the T/C (endpoint: mean survival time, dose: 50.0 mg/kg/injection, schedule: Q01DX009 (ip), vehicle: saline with Tween-80) is reported as 105 % of control, the T/C [10] is reported as 116 % of control and the T/C [9] is reported as 105 % of control.

For `CCOP(=S)(OCC)N1CC1`, the T/C [6] was 104 % of control, the T/C [7] was 93 % of control and the T/C [8] was 89 % of control.

`O=C(Nc1ccc(S(=O)(=O)F)c(Cl)c1)Oc1ccccc1` was tested, and the T/C [10] was 101 % of control, the T/C [1] was 95 % of control and the T/C [9] was 100 % of control. The T/C [2] was 95 % of control, the T/C (endpoint: mean survival time, dose: 400.0 mg/kg/injection, schedule: Q01DX009 (ip), vehicle: saline with Tween-80) was 97 % of control and the T/C [3] was 101 % of control.
